Results as given in ChEMBL document CHEMBL1148133, “New diterpene glycosides of the fungus Acremonium striatisporum isolated from a sea cucumber” (J Nat Prod, 2002).
≈ marks a conversion by molar mass, not a printed value.

Assays:
[1] = Cytotoxicity against mouse EAC; type: functional, cell-based; settings: Ehrlich
[2] = Cytotoxicity against Strongylocentrotus intermedius developing egg; type: functional

SMILES	IC50 [1] [µM]	MIC [2] [µM]
C=C[C@]1(C)C=C2[C@H](O)C[C@@H]3[C@](C)(CC[C@H](O)[C@]3(C)CO[C@@H]3O[C@H](CO)[C@@H](O)[C@@H](O)[C@@H]3O)[C@H]2CC1 [VIRESCENOSIDE O]	20	–
C=C[C@@]1(C)CCC2=C(C1)C(=O)C[C@H]1[C@@](C)(CO[C@@H]3O[C@H](CO)[C@@H](O)[C@@H](O)[C@@H]3O)[C@@H](O)CC[C@]21C [VIRESCENOSIDE P]	20	5 (≈ 2.4 µg/mL)
C=C[C@@]1(C)CC[C@H]2C(=CC[C@@H]3[C@]2(C)CC[C@H](O)[C@]3(C)CO[C@@H]2O[C@H](CO)[C@@H](O)[C@H](O)[C@@H]2O)C1 [VIRESCENOSIDE Q]	20	–
